The values that follow come from US11447511B2, “Dioxolane analogues of uridine for the treatment of cancer” (MEDIVIR AB, priority 2014, dated 2022).

Data set [1] has as its system Huh7. Kind of data set: Cell cytotoxicity assay, HUH7. In kind it is cell-based. The conditions noted are these: Huh7 cells, 5 days at 37° C., XTT dye. As to the method:
(§1) Cells were seeded 24 hours prior to compound addition. Each test compound (serially diluted from 100 μM) was added to Huh7 (1.5×10^4 cells/well) or HepG2 (1.5×10^4 cells/well), and allowed to incubate for 5 days at 37° C. A medium only control was used to determine the minimum absorbance value and an untreated cell value. At the end of the growth period, XTT dye from Polysciences Europe GmbH was added to each well. The absorbance at 450 nm with a reference wavelength of 600 nm was read with a Sunrise (Tecan) using the medium only control wells as blanks. The 50% inhibition value (CC50) was determined by comparing the degree of inhibition (compared to cell control) plotted against compound concentration. Results from the dilution series were fitted to a sigmoidal dose-response curve.
(§2) Compounds of the invention were evaluated in these assays to assess the stability in human intestinal S9 fraction (HIS9) and human liver S9 fraction (HLS9), and for Cell Cytotoxicity in HUH7, HEP3B and HEPG2 cells.
Background: Tetrazolium assays rely on reduction of a dye to a coloured formazan, in cell work by metabolically active cells.

The nature of data set [2]: Stability in human liver S9 fraction (HLS9). The conditions noted are these: human liver S9 0.4 mg protein/mL, 5 μM test compound, 37° C. The class given is in vitro ADME. As to the method: (§3) Stability in Human Intestinal S9 Fraction (HIS9) and in Human Liver S9 Fraction (HLS9),
(§4) Stock solutions of each test compound (10 mM) were prepared in DMSO and stored at −20° C. Prior to the start of the experiment, the test compounds were diluted to 500 μM in 50% acetonitrile in water. The reaction mixture was prepared in a total volume of 250 μL containing 5 mM MgC2, 1 mM NADPH and 5 μM test compound in 50 mM potassium phosphate buffer (pH 7.4). The reaction was initiated by addition of human liver or intestinal S9 fraction with a final concentration of 0.4 mg protein/mL (Xeno Tech). The reaction mixture was incubated on an orbital shaker at 37° C. At the desired time points (0, 10, 30 and 60 minutes) aliquots of 50 μL were taken and the reaction was stopped by mixing with 150 μL acetonitrile containing internal standard. Standard solutions of each test compound were prepared from the 500 μM solution by diluting the solution to a final concentration of 5 μM in boiled human S9 (0.4 mg protein/mL), 5 mM MgCl2 and 50 mM potassium phosphate buffer (pH 7.4). The standards and samples were kept on ice for 30 min then centrifuged at 3 000 g for 20 minutes at 10° C., there after 10 μL of supernatant was mixed with 200 μL 50% acetonitrile in water. 0.5 μM of each test compound in 50% acetonitrile in water was injected into the LC/MS-MS to determine the daughter ion, declustring potential (DP), collision energy (CE) and collision cell exit potential (CXP) in order to develop a LC/MS-MS method. The compounds were separated using a C18 column with a QTRAP5500 system. The mobile phase consisted of solvent A (98% water, 2% acetonitrile, 0.1% acetic acid or 10 mM ammonium acetate) and solvent B (80% acetonitrile, 20% water, 0.1% acetic acid or 10 mM ammonium acetate). Elution of the compounds was performed by using a gradient of solvent B from 0% to 100%. 5 μL of standard points and samples were injected for analysis with QTRAP5500.
(§5) The amount of parent compound was determined on the basis of the peak area for each time point compared to standard which was set to 5 μM. Intrinsic clearance (CLint) and half-life (t1/2) were determined from the disappearance curves of the test compound using Excel software.

Data set [3] concerns HEP3B. Kind of data set: Cell cytotoxicity assay, HEP3B. In kind it is cell-based. To be noted: HEP3B cells. The procedure: as §1, §2
Data set [4] concerns HepG2. Kind of data set: Cell cytotoxicity assay, HEPG2. The class given is cell-based. The conditions noted are these: HepG2 cells, 5 days at 37° C., XTT dye. As to the method:
as §1, §2

A short description of data set [5]: Stability in human intestinal S9 fraction (HIS9). The class given is in vitro ADME. To be noted: human intestinal S9 0.4 mg protein/mL, 5 μM test compound, 37° C. As to the method: as §3, §4, §5

Each structure is given as a SMILES string.

The CC50 is the concentration at which the toxic effect on the cells reaches its halfway point. A lower CC50 goes with greater toxicity to the cells. As to `CC[C@@H](C)OC(=O)[C@H](C)NP(=O)(OC[C@H]1OC[C@@H](n2ccc(N)nc2=O)O1)Oc1ccc([Si](C)(C)C)cc1` (single isomer, unassigned; dia-1) [11 dia-1], the CC50 in data set [1] turned out to be 26 nM; in data set [3], 18 nM; in data set [4], 54 nM. In addition, in data set [2], the “CLint Liver S9” value stood at 51 µL/min/mg. Also, in data set [5], the “CLint Intestinal S9” value came to 6 µL/min/mg.
For `CCC[C@H](C)OC(=O)[C@H](C)NP(=O)(OC[C@H]1OC[C@@H](n2ccc(N)nc2=O)O1)Oc1ccc(C2CC2)cc1` (single isomer, unassigned; dia-1) [16 dia-1], in that order: 1200 nM, 106 nM, 151 nM, 50 µL/min/mg and 8 µL/min/mg.
For `CC[C@@H](C)OC(=O)[C@H](C)NP(=O)(OC[C@H]1OC[C@@H](n2ccc(N)nc2=O)O1)Oc1ccccc1` (single isomer, unassigned; dia-1) [18 dia-1], in that order: 461 nM, 228 nM, 248 nM, 21 µL/min/mg and 6 µL/min/mg.
On to `CCCC(CCC)COC(=O)[C@H](C)NP(=O)(OC[C@H]1OC[C@@H](n2ccc(N)nc2=O)O1)Oc1ccc(Br)cc1` (single isomer, unassigned; dia-1) [23 dia-1], for which, in data set [2], the “CLint Liver S9” value came out at 186 µL/min/mg. Moreover, the CC50 in data set [3] was 10 nM; in data set [4] it was 8.6 nM. For the same compound, in data set [5], the “CLint Intestinal S9” value came out at 32 µL/min/mg.
In the same order, the values of `COC(=O)[C@H](C)NP(=O)(OC[C@H]1OC[C@@H](n2ccc(N)nc2=O)O1)Oc1ccccc1` (single isomer, unassigned; dia-1) [26 dia-1] are 7 µL/min/mg, 4340 nM, 1210 nM and 6 µL/min/mg.
On to `CC(C)OC(=O)[C@H](C)NP(=O)(OC[C@H]1OC[C@@H](n2ccc(N)nc2=O)O1)Oc1cccc2ccccc12` (single isomer, unassigned; dia-2) [5 dia-2], for which the CC50 is 602 nM in data set [1] and 114 nM in data set [4]. For the same compound, the “CLint Liver S9” value in data set [2] came to 31 µL/min/mg. The “CLint Intestinal S9” value in data set [5] is 13 µL/min/mg.
For `C[C@H](NP(=O)(OC[C@H]1OC[C@@H](n2ccc(N)nc2=O)O1)Oc1cccc2ccccc12)C(=O)OC1CCCCC1` (single isomer, unassigned; dia-2) [6 dia-2], in that order: 316 nM, 48 nM, 61 µL/min/mg and 25 µL/min/mg.
For `Nc1ccn([C@@H]2CO[C@H](COP(=O)(N[C@@H](Cc3ccccc3)C(=O)OC3CCCCC3)Oc3ccc(Br)cc3)O2)c(=O)n1` (single isomer, unassigned; dia-2) [7 dia-2], in that order: 134 nM, 58 nM, 60 µL/min/mg and 27 µL/min/mg.
On to `CCCC(CCC)COC(=O)[C@H](C)NP(=O)(OC[C@H]1OC[C@@H](n2ccc(N)nc2=O)O1)Oc1ccccc1` (single isomer, unassigned; dia-2) [8 dia-2], for which the CC50 in data set [1] stood at 74 nM; in data set [3] it was 35 nM; in data set [4], 17 nM.
On to `C[C@H](NP(=O)(OC[C@H]1OC[C@@H](n2ccc(N)nc2=O)O1)Oc1cccc2ccccc12)C(=O)OCc1ccccc1` (single isomer, unassigned; dia-2) [9 dia-2], for which the CC50 in data set [1] came to 158 nM; in data set [4] it was 16 nM. Further, the “CLint Liver S9” value in data set [2] turned out to be 94 µL/min/mg. In data set [5], the “CLint Intestinal S9” value was determined as 127 µL/min/mg.
`CC[C@@H](C)OC(=O)[C@H](C)NP(=O)(OC[C@H]1OC[C@@H](n2ccc(N)nc2=O)O1)Oc1ccc([Si](C)(C)C)cc1` (single isomer, unassigned; dia-2) [11 dia-2]: the “CLint Liver S9” value in data set [2] is 81 µL/min/mg. Moreover, the CC50 was determined as 31 nM in data set [3] and 54 nM in data set [4]. Besides, the “CLint Intestinal S9” value in data set [5] came to 28 µL/min/mg.
In the case of `Nc1ccn([C@@H]2CO[C@H](COP(=O)(N[C@@H](Cc3ccccc3)C(=O)OCc3ccccc3)Oc3cccc(C4CC4)c3)O2)c(=O)n1` (single isomer, unassigned; dia-2) [12 dia-2], the CC50 came out at 5020 nM in data set [1] and 1090 nM in data set [4]. Also, the “CLint Liver S9” value in data set [2] is 97 µL/min/mg. The “CLint Intestinal S9” value in data set [5] was 300 µL/min/mg.
In the same order, the values of `CCCC(CCC)COC(=O)[C@H](C)NP(=O)(OC[C@H]1OC[C@@H](n2ccc(N)nc2=O)O1)Oc1cccc2ccccc12` (single isomer, unassigned; dia-2) [14 dia-2] are 200 nM, 12 nM, 159 µL/min/mg and 59 µL/min/mg.
In the same order, the values of `CCC(CC)COC(=O)[C@H](C)NP(=O)(OC[C@H]1OC[C@@H](n2ccc(N)nc2=O)O1)Oc1ccccc1` (single isomer, unassigned; dia-2) [15 dia-2] are 26 nM, 19 nM, 95 µL/min/mg and 36 µL/min/mg.
Consider `CCC[C@H](C)OC(=O)[C@H](C)NP(=O)(OC[C@H]1OC[C@@H](n2ccc(N)nc2=O)O1)Oc1ccc(C2CC2)cc1` (single isomer, unassigned; dia-2) [16 dia-2], for which the CC50 is 152 nM in data set [1], 53 nM in data set [3] and 130 nM in data set [4]. The “CLint Liver S9” value in data set [2] was determined as 59 µL/min/mg. In addition, in data set [5], the “CLint Intestinal S9” value came out at 8 µL/min/mg.
In the same order, the values of `CC[C@@H](C)OC(=O)[C@H](C)NP(=O)(OC[C@H]1OC[C@@H](n2ccc(N)nc2=O)O1)Oc1ccccc1` (single isomer, unassigned; dia-2) [18 dia-2] are 76 nM, 113 nM, 65 nM, 30 µL/min/mg and 7 µL/min/mg.
For `C[C@H](NP(=O)(OC[C@H]1OC[C@@H](n2ccc(N)nc2=O)O1)Oc1ccccc1)C(=O)OCc1ccccc1` (single isomer, unassigned; dia-2) [19 dia-2], in that order: 71 nM, 58 nM, 14 nM, 24 µL/min/mg and 17 µL/min/mg.
Take `CCC(CC)OC(=O)[C@H](C)NP(=O)(OC[C@H]1OC[C@@H](n2ccc(N)nc2=O)O1)Oc1ccccc1` (single isomer, unassigned; dia-2) [21 dia-2]: the CC50 worked out at 70 nM in data set [1] and 48 nM in data set [4]. Besides, in data set [2], the “CLint Liver S9” value came to 22 µL/min/mg. Also, the “CLint Intestinal S9” value in data set [5] turned out to be 10 µL/min/mg.
For the compound `C[C@H](NP(=O)(OC[C@H]1OC[C@@H](n2ccc(N)nc2=O)O1)Oc1cccc2ccccc12)C(=O)OC1CCCC1` (single isomer, unassigned; dia-2) [22 dia-2], the CC50 in data set [1] was 40 nM; in data set [4], 11 nM. In data set [2], the “CLint Liver S9” value was 43 µL/min/mg. Moreover, in data set [5], the “CLint Intestinal S9” value came out at 34 µL/min/mg.
In the same order, the values of `CCCCCCCCCCCCCCCC(=O)Nc1ccn([C@@H]2CO[C@H](COP(=O)(N[C@@H](C)C(=O)OC(C)C)Oc3ccccc3)O2)c(=O)n1` (single isomer, unassigned; dia-2) [35 dia-2] are 11 nM, 7 nM, 34 µL/min/mg and 51 µL/min/mg.
